For experiment [1] the following is noted: prior art; cited from earlier work.
The test system of the next experiment is dogs. The note with it: prior art; cited from earlier work.
The conditions of experiment [2]: prior art; cited from earlier work. The source holds these as a separate data set.
Experiment [3] has as its system tetrabenazine-induced sedation and depression in mice. Kind of experiment: Antagonism of tetrabenazine-induced depression in mice (prevention of ptosis and exploratory loss), orally at 1 hour post-drug. It counts as in vivo, mice (Carworth CF1 S female). The note with it: Mus musculus, oral, tetrabenazine 32 mg/kg intraperitoneally 30 minutes after drug. How it is done:
(Everett, "The Dopa Response Potentiation Test and Its Use in Screening for Antidepressant Drugs", pp. 164-167 in "Antidepressant Drugs" [Proceedings of the First International Symposium], S. Garattini and M. N. G. Dukes, eds., 1967). Groups of 10 Carworth CF1 S female mice, 18-21 g each, were fasted 1.5 hours and were intubated with antagonist compounds at oral doses of 0, 5, 25, and 125 mg/kg or 0, 1, 3, 9, 27, and 81 mg/kg in 0.20 ml of 1% Methocel (methylcellulose). The mice were challenged 30 minutes later with tetrabenazine (as the methane-sulfonate), 32 mg/kg intraperitoneally (dissolved in 0.20 ml 0.05 M KCl at pH 2.0). One hour after antagonist (30 minutes after tetrabenazine), the mice were examined for signs of exploratory activity and ptosis (eyelid closure). Normal exploratory activity (relief from sedation) was recorded when a mouse lifted by the tail from a group of 10 in a testing box and placed on a stainless steel testing box lid (12.5"×8" with 0.33" mesh) either turned its head horizontally 30° in both directions or moved to the edge of the screen within 10 seconds after being placed on the screen. Relief from ptosis was recorded when exactly two seconds after placing the mouse facing the observer, lid closure was less than 50% in both eyes. For comparison, the marketed antidepressant amitriptylene was also tested, and an ED50 (effective dose in 50% of the cases) was determined. The lower the ED50, the better the antidepressant.

The mark [4] stands for this setting: read-out: ED50 For Prevention of Exploratory Loss.
The mark [5] stands for this setting: read-out: ED50 For Prevention of Ptosis.

Read-outs that look alike come from different tables or passages of the source.

In the case of `CN(C)C1CCc2[nH]c3ccccc3c2C1` (centres unmarked), in experiment [1], the “analgetic and psychotropic activity” value was “analgetic and psychotropic activity”.
As to `CN(C)C1CCc2[nH]c3cc(O)ccc3c2C1` (centres unmarked), the cardiotonic effects entry with dogs is reported as “cardiotonic effects”.
As to `CNCCCC1CN(c2ccccc2)c2ccccc21` (centres unmarked), the antidepressant activity result in experiment [2] was “antidepressant activity”.
In the case of `CCNC1CCc2c([nH]c3ccccc23)C1.Cl` (centres unmarked) [Compound 3i, N-ethyl-2,3,4,9-tetrahydro-1H-carbazol-2-amine hydrochloride], the ED50 in experiment [3] (setting [4]) and in experiment [3] (setting [5]) was 27 mg/kg in each case.
`CNC1CCc2c([nH]c3ccccc23)C1.Cl` (centres unmarked) [Compound 3j, 2,3,4,9-Tetrahydro-N-methyl-1H-carbazol-2-amine hydrochloride]: the values for the ED50 in experiment [3] (setting [4]) and in experiment [3] (setting [5]) were 32 mg/kg and 12 mg/kg, respectively.
The corresponding values for `CN(C)C1CCc2c([nH]c3ccccc23)C1` (centres unmarked) [Compound 3k] are 39 mg/kg and 11.4 mg/kg.
The corresponding values for `CN(C)CCC=C1c2ccccc2CCc2ccccc21` [amitriptyline, reference compound] are 2.6 mg/kg and 1.2 mg/kg.

What is called ED50 is the midpoint of the dose-response relation.

The values are drawn from patent US4343812A, “Antidepressant 2-amino-and-2-(substituted amino)-cis-hexahydro-carbazoles, compositions and use” (E. I. Du Pont de Nemours and Company, priority 1980, dated 1982).
